Reference: patent US9980943B2, “Methods of treating muscular dystrophy” (BOARD OF REGENTS OF THE NEVADA SYSTEM OF HIGHER EDUCATION, …, priority 2013, dated 2018)

What was measured:
Assay type in all cases: cell-based, mouse
[1] = test system: α7 integrin (LacZ reporter in α7+/LacZ myotubes); assay: Myotube α7 integrin FDG assay (Burkin assay in myotubes, 96-well); conditions: myotubes
[2] = test system: β-galactosidase in CMV-LacZ C2C12 myoblasts; assay: CMV-LacZ secondary screen in C2C12 myoblasts (β-Gal stabilizing assay); conditions: CMV-LacZ C2C12 myoblasts
Summary of the method: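 First, C2C12 myoblasts were transfected with a linearized CMV-LACZ vector and clonal lines selected by FDG β-gal assay. Then cells were exposed to compounds at 0.5, 1, 5, 10, 20 and 40 μM in 96-well format, two replicates each, and β-gal measured.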

[3] = test system: α7 integrin (LacZ reporter in α7βgal+/− myoblasts); assay: Myoblast α7+/LacZ integrin FDG assay (Burkin assay in myoblasts, 96-well); conditions: α7+/LacZ myoblasts, 96-well
[4] = test system: β-galactosidase in CMV-LacZ C2C12 myotubes; assay: CMV-LacZ secondary screen in C2C12 myotubes (β-Gal stabilizing assay); conditions: C2C12 CMV-LacZ myotubes, fold relative to DMSO
Summary of the method: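 β-gal stabilization was measured in C2C12 myoblasts or myotubes stably transfected with a CMV-driven LacZ construct, using the FDG β-gal assay. Compounds were tested in dose-response at 0.5, 1, 5, 10, 20 and 40 μM, with two replicates per point.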

SMILES | Burkin Assay in Myotubes, α7 integrin LacZ reporter signal relative to DMSO ([1]; 0.5 uM) | Burkin Assay in Myotubes, α7 integrin LacZ reporter signal relative to DMSO ([1]; 1 uM) | Burkin Assay in Myotubes, α7 integrin LacZ reporter signal relative to DMSO ([1]; 5 uM) | Burkin Assay in Myotubes, α7 integrin LacZ reporter signal relative to DMSO ([1]; 10 uM) | Burkin Assay in Myotubes, α7 integrin LacZ reporter signal relative to DMSO ([1]; 20 uM) | Burkin Assay in Myotubes, α7 integrin LacZ reporter signal relative to DMSO ([1]; 40 uM) | CMV-LACZ in Myoblasts (β-galactosidase activity relative to DMSO) ([2]; 0.5 uM) | CMV-LACZ in Myoblasts (β-galactosidase activity relative to DMSO) ([2]; 1 uM) | CMV-LACZ in Myoblasts (β-galactosidase activity relative to DMSO) ([2]; 5 uM) | CMV-LACZ in Myoblasts (β-galactosidase activity relative to DMSO) ([2]; 10 uM) | CMV-LACZ in Myoblasts (β-galactosidase activity relative to DMSO) ([2]; 20 uM) | CMV-LACZ in Myoblasts (β-galactosidase activity relative to DMSO) ([2]; 40 uM) | Burkin Assay in Myoblasts, signal relative to DMSO ([3]; 0.5 uM) | Burkin Assay in Myoblasts, signal relative to DMSO ([3]; 1 uM) | Burkin Assay in Myoblasts, signal relative to DMSO ([3]; 5 uM) | Burkin Assay in Myoblasts, signal relative to DMSO ([3]; 10 uM) | Burkin Assay in Myoblasts, signal relative to DMSO ([3]; 20 uM) | Burkin Assay in Myoblasts, signal relative to DMSO ([3]; 40 uM) | CMV-LACZ in Myotubes, signal relative to DMSO ([4]; 0.5 uM) | CMV-LACZ in Myotubes, signal relative to DMSO ([4]; 1 uM) | further results
O=C(O)C(Cc1ccc(O)cc1)N1C(=O)c2ccccc2C1=O (stereo not drawn) [MLS001165394-01] | 1.068 | 1.135 | 1.239 | 0.9854 | 1.188 | 1.034 | 1.0655 | 1.0015 | 1.0941 | 0.9792 | 0.8663 | 0.9570 | 1.149 | 1.201 | 1.159 | 0.951 | 1.035 | 1.007 | 0.9232 | 1.1558 | CMV-LACZ in Myotubes, signal relative to DMSO ([4]; 5 uM): 0.9589; CMV-LACZ in Myotubes, signal relative to DMSO ([4]; 10 uM): 0.9045; CMV-LACZ in Myotubes, signal relative to DMSO ([4]; 20 uM): 1.0344; CMV-LACZ in Myotubes, signal relative to DMSO ([4]; 40 uM): 0.9544
COc1ccccc1CC(=O)Nc1cc(S(=O)(=O)N2CCOCC2)ccc1N1CCOCC1 [MLS002170630-01] | 1.03 | 1.075 | 0.9697 | 1.123 | 0.8857 | 1.0714 | 0.9954 | 0.8054 | 0.9890 | 0.9628 | 0.8233 | 0.7387 | 1.122 | 0.9708 | 1.0982 | 1.216 | 0.7825 | 0.6735 | 0.8136 | 1.0036 | CMV-LACZ in Myotubes, signal relative to DMSO ([4]; 5 uM): 1.2068; CMV-LACZ in Myotubes, signal relative to DMSO ([4]; 10 uM): 0.9248; CMV-LACZ in Myotubes, signal relative to DMSO ([4]; 20 uM): 0.9710; CMV-LACZ in Myotubes, signal relative to DMSO ([4]; 40 uM): 0.8580
CC1CCN(C(CNS(=O)(=O)c2ccccc2)c2ccccc2)CC1 (stereo not drawn) [MLS002171615-01] | 1.107 | 1.17 | 0.9709 | 0.9947 | 0.8432 | 0.8303 | 1.0498 | 1.3505 | 0.9273 | 0.9905 | 1.2159 | 0.6726 | 1.052 | 0.9407 | 0.9747 | 0.8859 | 0.709 | 0.6178 | 0.9863 | 0.7874 | CMV-LACZ in Myotubes, signal relative to DMSO ([4]; 5 uM): 0.9989; CMV-LACZ in Myotubes, signal relative to DMSO ([4]; 10 uM): 0.9582; CMV-LACZ in Myotubes, signal relative to DMSO ([4]; 20 uM): 1.0111; CMV-LACZ in Myotubes, signal relative to DMSO ([4]; 40 uM): 1.0711
N#CC1=C2SCN(c3ccccc3)CN2C(=O)CC1c1cccs1 (stereo not drawn) [MLS000080654-01] | 1.067 | 1.092 | 0.9044 | 0.9707 | 0.7422 | 0.6217 | 1.1851 | 1.4314 | 1.0703 | 0.9345 | 1.0174 | 0.8815 | 0.9788 | 0.923 | 0.9235 | 0.9429 | 1.112 | 0.9166 | 1.1229 | 1.0086 | CMV-LACZ in Myotubes, signal relative to DMSO ([4]; 5 uM): 1.0335; CMV-LACZ in Myotubes, signal relative to DMSO ([4]; 10 uM): 1.0399; CMV-LACZ in Myotubes, signal relative to DMSO ([4]; 20 uM): 1.1871; CMV-LACZ in Myotubes, signal relative to DMSO ([4]; 40 uM): 1.4259
COc1cccc(C(=O)COc2ccc3ccc(=O)oc3c2)c1 [MLS000677675-01] | 1.278 | 1.205 | 1.081 | 1.044 | 0.6675 | 0.6873 | 1.0343 | 1.1214 | 0.9905 | 1.0373 | 1.0763 | 1.1578 | 1.093 | 1.061 | 0.9873 | 1.028 | 1.004 | 0.9554 | 0.8619 | 0.9962 | CMV-LACZ in Myotubes, signal relative to DMSO ([4]; 5 uM): 1.0578; CMV-LACZ in Myotubes, signal relative to DMSO ([4]; 10 uM): 1.0091; CMV-LACZ in Myotubes, signal relative to DMSO ([4]; 20 uM): 0.9918; CMV-LACZ in Myotubes, signal relative to DMSO ([4]; 40 uM): 1.2494
